Tested on: MBT-2 tumors
Assay: Anti-tumoral activity in MBT-2 syngeneic ectotopic (subcutaneous) tumor model
Type: in vivo, mouse
Set-up: key to Statistical significance for tumor growth versus Anti-PD-1: p value < 0.05*; ns: Ns: non significant
Description: The aim of this study is to determine the anti-tumoral activity of ABX196 or of anti-PD-1 antibody, administered systemically alone, in MBT2 syngeneic ectotopic models and in particular, to evaluate the capacity of these agents to treat established sub-cutaneous tumors.
Anti-PD-1 antibody (ref.: BE0146, BioXcell; clone: RMP1-14, reactivity: mouse; isotype: Rat IgG2a; storage conditions: +4° C.). Anti-PD-1 antibody is prepared in phosphate buffered saline (PBS) or other suitable vehicle according to manufacturer's recommendation. The anti-PD-1 antibody is administered at the dose of 10 mg/kg. Anti-PD-1 antibody is injected into the peritoneal cavity of mice (Intraperitoneally, IP). Anti-PD-1 antibody is administered at a dose volume of 10 mL/kg/adm.
ABX196 is provided as a solution at […] and is administered at the dose of 100 ng per mouse. ABX196 is injected by the intravenous route in the caudal vein of mice (IV, bolus). ABX196 is administered at a fixed dose volume of 100 μL (i.e. approximately 5 mL/kg/adm. for one mouse weighing 20 g).
Tumor cells are grown as monolayer at 37° C. in a humidified atmosphere (5% CO2, 95% air). The culture medium is RPMI 1640 containing 2 mM L-glutamine (ref: BE12-702F, Lonza, Verviers, Belgium) supplemented with 10% fetal bovine serum (ref: 3302, Lonza). Tumor cells are adherent to plastic flasks. For experimental use, tumor cells are detached from the culture flask by a 5-minutes treatment with trypsin-versene (ref: BE02-007E, Lonza), in Hanks' medium without calcium or magnesium (ref: BE10-543F, Lonza) and neutralized by addition of complete culture medium.
68 (sixty-eight) healthy female C3H/HeJ (C3H/HeOuJ) mice, 6-7 weeks old, are obtained from The Jackson Laboratory (Bar Harbor, Me.) for the MBT-2 model.
MBT-2 tumors are induced by subcutaneous injection of 1×10^6 cells in 200 μL of RPMI 1640 into the right flank of the sixty-eight female animals.
The treatment starts when the tumors reach a mean volume of 80-120 mm^3 (day 13 in this experiment). The sixty-eight mice for the MBT-2 model are randomized according to their individual tumor volume into 4 groups each (one not shown) of 12 animals using Vivo Manager® software (Biosystemes, Couternon, France). A statistical test (analysis of variance, ANOVA) is performed to test for homogeneity between groups. The treatment schedule was chosen as follows:
Animals from group 1 receive an IV injection of ABX196 vehicle and an IP injection of anti-PD-1 antibody vehicle,
Animals from group 2 receive an IV injection of 100 ng of ABX196,
Animals from group 3 receive twice weekly administrations of anti-PD-1 antibody,
Tumor growth inhibition (T/C) is defined as the ratio of the median tumor volumes of treated versus control group. The optimal value is the minimal T/C ratio reflecting the maximal tumor growth inhibition achieved.

[1] = day 20, one way ANOVA, pair wise Bonferroni's multiple comparison test

CCCCCCCCCCCCCCCCCCCCCCCC(=O)N[C@@H](CO[C@H]1O[C@H](CNC(C)=O)[C@H](O)[C@H](O)[C@H]1O)[C@H](O)[C@H](O)CCCCCCCCCCCCCC [ABX196]
T/C (%) (tumor growth inhibition, ratio of median tumor volumes of treated versus control group) (C3H/HeJ mice with subcutaneous MBT-2 tumors, day 23 after tumor induction, ABX196 100 ng IV Q1Dx1, anti-PD-1 10 mg/kg IP TWx2): 54% | Statistical significance for tumor growth versus Anti-PD-1 [1]: ns | Statistical significance for tumor growth versus Vehicle [1]: * (p value < 0.05*) | Mean tumor volume in function of time after tumor induction (FIG. 1), compared with anti-PD-1 antibodies (subcutaneous MBT-2 tumors, ABX196 100 ng IV Q1Dx1): reduces more efficiently the tumor volume than anti-PD-1 antibodies | Tumor growth inhibition (FIG. 2), compared with anti-PD-1 antibodies (subcutaneous MBT-2 tumors, day 23, ABX196 100 ng IV Q1Dx1): inhibits more efficiently the tumor growth than anti-PD-1 antibodies

Reference: patent publication US11266667B2, “ABX196 for use in the treatment of bladder cancer” (ABIVAX, priority 2017, dated 2022)
